In assay [1] the target is histamine receptor H1 (Homo sapiens, UniProt P35367). As to the kind of experiment: Histamine H1 radioligand binding ([3H]Pyrilamine). As to conditions: for inhibition at 1 µM: read-out: Histamine Binding (1 μM) H1, percent inhibition of specific binding, 1 μM. An outline of the steps: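 Values are percent inhibition of specific [3H]pyrilamine (1.2 nM) binding with compounds at ≤1 μM (1% DMSO vehicle); 180 min incubation at 25 °C, pH 7.4 Tris buffer, on CHO-expressed human H1 receptor; 1 μM pyrilamine defined nonspecific binding, bound ligand counted after filtration.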
histamine receptor H1, sequence (P35367 whole entry): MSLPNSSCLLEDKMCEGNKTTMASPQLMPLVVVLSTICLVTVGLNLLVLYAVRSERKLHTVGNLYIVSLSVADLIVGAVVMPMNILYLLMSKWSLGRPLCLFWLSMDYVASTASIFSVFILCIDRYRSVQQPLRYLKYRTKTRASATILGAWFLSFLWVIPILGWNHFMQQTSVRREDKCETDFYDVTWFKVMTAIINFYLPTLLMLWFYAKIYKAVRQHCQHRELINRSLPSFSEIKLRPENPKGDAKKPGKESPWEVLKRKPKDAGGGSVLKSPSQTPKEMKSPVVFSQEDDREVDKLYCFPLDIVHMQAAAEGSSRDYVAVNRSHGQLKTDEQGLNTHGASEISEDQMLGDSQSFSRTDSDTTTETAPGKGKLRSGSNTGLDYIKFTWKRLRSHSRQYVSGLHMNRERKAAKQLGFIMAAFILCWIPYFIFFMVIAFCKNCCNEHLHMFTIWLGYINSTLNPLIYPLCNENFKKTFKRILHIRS

The target of assay [2] is T1, human recombinant histamine H2 receptor (Homo sapiens, UniProt P25021).
T1 construct: expressed in transfected cells; host or cells: Chinese hamster ovary (CHO) K1 cells
T1 sequence (P25021 whole entry): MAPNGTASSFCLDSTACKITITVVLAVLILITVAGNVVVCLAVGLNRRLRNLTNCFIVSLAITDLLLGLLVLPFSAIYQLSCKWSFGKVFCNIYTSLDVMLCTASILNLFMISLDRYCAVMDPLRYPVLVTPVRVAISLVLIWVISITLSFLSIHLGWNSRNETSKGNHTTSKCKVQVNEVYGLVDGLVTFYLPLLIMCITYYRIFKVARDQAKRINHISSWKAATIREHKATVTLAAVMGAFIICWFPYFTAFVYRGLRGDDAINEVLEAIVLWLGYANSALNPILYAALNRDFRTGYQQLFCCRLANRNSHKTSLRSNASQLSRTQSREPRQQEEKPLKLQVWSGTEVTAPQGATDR
In words: Histamine H2 radioligand binding ([125I]Aminopotentidine). As to conditions: read-out: Histamine Binding (1 μM) H2, percent inhibition of specific binding, 1 μM. In short, it runs like this: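 CHO-K1 cells expressing human recombinant H2 receptor, 50 mM phosphate buffer pH 7.4; compounds incubated with 0.1 nM [125I]aminopotentidine for 120 min at 25 °C. Nonspecific binding defined with 3 μM tiotidine; specifically bound radioligand counted after filtration and washing.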

Assay [3] concerns the target T2, human recombinant adrenergic α2A receptor (Homo sapiens, UniProt P08913).
T2 construct: expressed in transfected cells; host or cells: insect Sf9 cells
T2 sequence (P08913 1-465): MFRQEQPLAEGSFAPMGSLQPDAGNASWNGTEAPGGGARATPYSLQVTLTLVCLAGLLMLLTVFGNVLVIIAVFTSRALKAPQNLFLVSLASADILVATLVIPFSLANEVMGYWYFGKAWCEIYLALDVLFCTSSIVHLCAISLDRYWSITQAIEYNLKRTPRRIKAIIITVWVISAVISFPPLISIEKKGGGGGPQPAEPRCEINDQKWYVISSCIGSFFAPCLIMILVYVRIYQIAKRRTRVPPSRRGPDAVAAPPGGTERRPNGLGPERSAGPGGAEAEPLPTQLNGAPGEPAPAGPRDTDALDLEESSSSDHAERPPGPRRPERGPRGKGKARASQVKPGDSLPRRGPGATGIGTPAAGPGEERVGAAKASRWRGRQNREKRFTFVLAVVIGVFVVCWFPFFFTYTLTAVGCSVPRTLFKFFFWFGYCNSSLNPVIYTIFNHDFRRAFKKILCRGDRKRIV
As to the kind of experiment: Adrenergic α2A radioligand binding ([3H]MK-912). To be noted: compound at 1 μM. An outline of the steps:
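Sf9-expressed human receptor in 50 mM Tris-HCl pH 7.4, 12.5 mM MgCl2, 2 mM EDTA; compounds at 1 μM or lower (1% DMSO) incubated with 1 nM [3H]MK-912 for 60 min at 25° C. Non-specific binding defined with 10 μM WB-4101; filtered bound radioactivity counted, reported as percent inhibition of specific binding.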

For assay [4], the target named is T3, human recombinant adrenergic α2B receptor (Homo sapiens, UniProt P18089).
T3 construct: expressed in transfected cells; host or cells: Chinese hamster ovary (CHO-K1) cells
T3 sequence (P18089 1-450): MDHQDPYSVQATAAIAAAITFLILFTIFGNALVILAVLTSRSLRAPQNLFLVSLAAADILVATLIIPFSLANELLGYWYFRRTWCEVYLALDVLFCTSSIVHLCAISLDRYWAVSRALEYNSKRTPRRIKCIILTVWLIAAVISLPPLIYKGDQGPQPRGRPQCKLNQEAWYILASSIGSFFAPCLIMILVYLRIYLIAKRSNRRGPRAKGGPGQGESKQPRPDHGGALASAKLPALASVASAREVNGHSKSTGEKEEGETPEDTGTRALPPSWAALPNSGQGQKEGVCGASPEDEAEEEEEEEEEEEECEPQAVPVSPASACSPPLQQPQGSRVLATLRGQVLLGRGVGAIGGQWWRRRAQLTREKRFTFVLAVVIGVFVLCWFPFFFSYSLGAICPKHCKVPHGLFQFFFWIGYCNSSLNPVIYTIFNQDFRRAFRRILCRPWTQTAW
In words: Adrenergic α2B radioligand binding ([3H]Rauwolscine). As to conditions: compound at 1 μM. An outline of the steps:
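Membranes from CHO-K1 cells expressing the receptor were incubated with 2.5 nM [3H]Rauwolscine for 60 min at 25 °C in Tris-HCl buffer pH 7.4 with MgCl2, EDTA and BSA. Non-specific binding was defined with 10 μM prazosin. Compounds were tested at ≤1 μM in 1% DMSO and read out as % inhibition of specific binding after filtration.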

For assay [5], the target named is human dopamine D2L receptor (Homo sapiens, UniProt P14416). In words: Dopamine D2L radioligand binding ([3H]Spiperone). As to conditions: compound at 1 μM; for Inhibition of ligand binding, Dopamine D2L: 1 µM. The source says: Non-specific binding was estimated in the presence of […] Haloperidol. Receptor proteins were filtered and washed, the filters were then counted to determine [^3H]Spiperone specifically bound. […] Biochemical assay results are presented as the percent inhibition of specific binding in Table 9.
human dopamine D2L receptor, sequence (P14416 whole entry): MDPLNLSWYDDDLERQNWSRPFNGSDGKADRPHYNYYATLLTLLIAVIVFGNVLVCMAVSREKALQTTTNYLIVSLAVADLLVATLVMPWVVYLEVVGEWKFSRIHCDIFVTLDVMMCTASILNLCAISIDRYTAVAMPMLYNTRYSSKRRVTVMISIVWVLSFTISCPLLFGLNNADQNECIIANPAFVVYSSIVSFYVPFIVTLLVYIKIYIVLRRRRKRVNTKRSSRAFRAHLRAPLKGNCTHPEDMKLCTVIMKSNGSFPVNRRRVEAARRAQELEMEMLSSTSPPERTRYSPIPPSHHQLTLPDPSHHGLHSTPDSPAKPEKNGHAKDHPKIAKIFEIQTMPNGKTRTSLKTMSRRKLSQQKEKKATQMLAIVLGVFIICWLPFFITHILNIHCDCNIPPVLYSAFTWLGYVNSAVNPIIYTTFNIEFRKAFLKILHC

Where [6] appears, read: percent inhibition of specific binding, read-out: Inhibition of ligand binding, Adrenergic α2A.
The mark [7] stands for this setting: percent inhibition of specific binding, read-out: Inhibition of ligand binding, Adrenergic α2B.
[8] abbreviates: percent inhibition of specific binding, read-out: Inhibition of ligand binding, Dopamine D2L.
Setting [9] is: percent inhibition of specific binding.

The structures appear in SMILES notation. Where two headings read alike, the source gives them in different places.

For orientation: inhibition means the change of the read-out against control, counted positive when it falls.

Regarding `C/C(=C\n1c2c(c3cc(Cl)ccc31)CN(C)CC2)c1ccccc1F` [Compound 213, (E)-8-chloro-5-(2-(2-fluorophenyl)prop-1-enyl)-2-methyl-2,3,4,5-tetrahydro-1H-pyrido[4,3-b]indole], the inhibition at 1 µM in assay [1] stood at 69%; in assay [2], 99%; in assay [3] (setting [6]), 88%; in assay [4] (setting [7]), 103%; in assay [5] (setting [8]), 76%.
`Cc1ccc2c(c1)c1c(n2C#Cc2ccc(F)cc2)CCN(C)C1` [Compound No. 478, 5-((4-fluorophenyl)ethynyl)-2,8-dimethyl-2,3,4,5-tetrahydro-1H-pyrido[4,3-b]indole]: the inhibition at 1 µM was determined as 28% in assay [1]; 94% in assay [2]; 96% in assay [3] (read-out: Inhibition of ligand binding, Adrenergic α2A (percent inhibition of specific binding)); 106% in assay [4] ([…] [3H]Rauwolscine, read-out: Inhibition of ligand binding, Adrenergic α2B (percent inhibition of specific binding)); 89% in assay [5] ([…] [3H]Spiperone, read-out: Inhibition of ligand binding, Dopamine D2L (percent inhibition of specific binding)).
With `Cc1ccc2c(c1)c1c(n2CC(C)(O)c2ccc(F)cc2)CCN(C)C1` (stereo not shown) [Compound 55, 2-(4-fluorophenyl)-1-(1,2,3,4-tetrahydro-2,8-dimethylpyrido[4,3-b]indol-5-yl)propan-2-ol], the inhibition at 1 µM in assay [1] was 91%; in assay [2], 88%; in assay [3] (setting [6]) it was 85%; in assay [4] (setting [7]), 108%; in assay [5] (setting [8]), 34%.
The matching figures for `C/C(=C\n1c2c(c3cc(Cl)ccc31)CN(C)CC2)c1ccccc1` [compound 106, (E)-8-chloro-2,3,4,5-tetrahydro-2-methyl-5-(2-phenylprop-1-enyl)-1H-pyrido[4,3-b]indole]: 84%, 99%, 93%, 114% and 90%.
Regarding `CCOC(=O)/C=C(/Cn1c2c(c3cc(C)ccc31)CN(C)CC2)c1ccccc1` [Compound No. 347, (E)-ethyl 4-(2,8-dimethyl-3,4-dihydro-1H-pyrido[4,3-b]indol-5(2H)-yl)-3-phenylbut-2-enoate], the “Histamine Binding (1 μM) H1, percent inhibition of specific binding” value in assay [1] stood at 56%. The inhibition at 1 µM in assay [1] stood at 42%; in assay [2], 87%; in assay [3] (setting [6]) it was 96%; in assay [4] (setting [7]) it was 111%; in assay [5] (setting [8]), 27%. In addition, the “Inhibition of ligand binding, Dopamine D2L” value (“Inhibition of ligand binding” below) in assay [5] (setting [9]) was 30%.
On to `C/C(=C\n1c2c(c3cc(Cl)ccc31)CN(C)CC2)c1ccc(Cl)cc1` [Compound 100, (E)-8-chloro-5-(2-(4-chlorophenyl)prop-1-enyl)-2,3,4,5-tetrahydro-2-methyl-1H-pyrido[4,3-b]indole], for which the “Histamine Binding (1 μM) H1, percent inhibition of specific binding” value in assay [1] stood at 67%. Further, the inhibition at 1 µM in assay [1] was found to be 65%; in assay [2], 100%; in assay [3] (setting [6]) it was 101%; in assay [4] (setting [7]), 97%; in assay [5] (setting [8]), 67%. Besides, the “Inhibition of ligand binding” value in assay [5] (setting [9]) is given as 68%.
For the compound `C=C(Cn1c2c(c3cc(Cl)ccc31)CN(C)CC2)c1cccnc1` [Compound 133, 8-chloro-2,3,4,5-tetrahydro-2-methyl-5-(2-(pyridin-3-yl)allyl)-1H-pyrido[4,3-b]indole], the inhibition at 1 µM in assay [1] came to 101%; in assay [2] it was 60%; in assay [3] (setting [6]) it was 89%; in assay [4] (setting [7]), 103%; in assay [5] (setting [8]), 29%.
As to `COc1ccc(/C(C)=C/n2c3c(c4cc(Cl)ccc42)CN(C)CC3)cc1F` [Compound 93, (E)-8-chloro-5-(2-(3-fluoro-4-methoxyphenyl)prop-1-enyl)-2,3,4,5-tetrahydro-2-methyl-1H-pyrido[4,3-b]indole], the inhibition at 1 µM worked out at 39% in assay [1]; 100% in assay [2]; 94% in assay [3] (setting [6]); 108% in assay [4] (setting [7]); 85% in assay [5] (setting [8]). Further, the “Inhibition of ligand binding” value in assay [5] (setting [9]) came out at 97%.
On to `Cc1ccc2c(c1)c1c(n2CC(C)(O)c2ccc(C)nc2)CCN(C)C1` (stereo not shown) [Compound 52, 1-(1,2,3,4-tetrahydro-2,8-dimethylpyrido[4,3-b]indol-5-yl)-2-(6-methylpyridin-3-yl)propan-2-ol], for which the inhibition at 1 µM in assay [1] worked out at 46%; in assay [2], 51%; in assay [3] (setting [6]), 84%; in assay [4] (setting [7]) it was 104%; in assay [5] (setting [8]) it was 12%.
On to `C=C(Cn1c2c(c3cc(Cl)ccc31)CN(C)CC2)c1ccc(C)nc1` [Compound 136, 8-chloro-2,3,4,5-tetrahydro-2-methyl-5-(2-(6-methylpyridin-3-yl)allyl)-1H-pyrido[4,3-b]indole], for which the inhibition at 1 µM in assay [1] amounted to 99%; in assay [2], 85%; in assay [3] (setting [6]), 95%; in assay [4] (setting [7]) it was 90%; in assay [5] (setting [8]) it was 54%.
`CN1CCc2c(c3cc(Cl)ccc3n2CC(C)(O)c2cccnc2)C1` (stereo not shown) [Compound 61, 1-(8-chloro-1,2,3,4-tetrahydro-2-methylpyrido[4,3-b]indol-5-yl)-2-(pyridin-3-yl)propan-2-ol]: the inhibition at 1 µM in assay [1] amounted to 52%; in assay [2], 41%; in assay [3] (setting [6]) it was 76%; in assay [4] (setting [7]), 107%; in assay [5] (setting [8]), 19%.
In the case of `C/C(=C\n1c2c(c3cc(C)ccc31)CN(C)CC2)c1ccc(F)cc1` [Compound 87, (E)-5-(2-(4-fluorophenyl)prop-1-enyl)-2,3,4,5-tetrahydro-2,8-dimethyl-1H-pyrido[4,3-b]indole], the “Histamine Binding (1 μM) H1, percent inhibition of specific binding” value in assay [1] is 81%. Also, the inhibition at 1 µM in assay [1] was determined as 65%; in assay [2], 100%; in assay [3] (setting [6]) it was 95%; in assay [4] (setting [7]), 121%; in assay [5] (setting [8]), 97%.
With `C/C=C/C(=C\n1c2c(c3cc(Cl)ccc31)CN(C)CC2)c1ccc(F)cc1` [Compound 204, 8-chloro-5-((1E,3E)-2-(4-fluorophenyl)penta-1,3-dienyl)-2-methyl-2,3,4,5-tetrahydro-1H-pyrido[4,3-b]indole], the inhibition at 1 µM is 55% in assay [1]; 101% in assay [2]; 99% in assay [3] (setting [6]); 86% in assay [4] (setting [7]); 87% in assay [5] (setting [8]).
The matching figures for `Cc1ccc2c(c1)c1c(n2CC(O)(c2ccccc2)c2ccc(F)cc2)CCN(C)C1` (stereo not shown) [Compound No. 176, 2-(2,8-dimethyl-3,4-dihydro-1H-pyrido[4,3-b]indol-5(2H)-yl)-1-(4-fluorophenyl)-1-phenylethanol]: 21%, 74%, 94%, 95% and 6%.

Source of the values: patent publication US8906925B2, “Pyrido[4,3-B]indoles containing rigid moieties” (Medivation Technologies, Inc., priority 2008, dated 2014).
